According to PubChem BioAssay AID1996:
In brackets after ≈: the same amount, converted by molar mass.

Settings: buffer; pH 7.4; 200.0 µM

Row | SMILES | solubility kinetic
1 | CSc1ncc(CN2CCc3c([nH]c4ccccc34)C2C(C)(C)C)cn1 (centres undefined) | 19.5 µg/mL (≈ 53.2 µM)
2 | CCOC(=O)N1CCN(C(=O)c2cc3cc(F)ccc3[nH]2)CC1 | 40.5 µg/mL (≈ 127 µM)
3 | CC(C)n1cc(NC(=O)COc2ccccc2Cl)cn1 | > 44.1 µg/mL
4 | O=C1CN(C(=O)c2ccccc2C(=O)O)c2ccccc2N1 | > 44.4 µg/mL
5 | CCCC(=O)Nc1cc2c3c(c1)C(C)C(=O)N3CCC2 (centres undefined) | 38 µg/mL (≈ 140 µM)
6 | Cc1ccc(Nc2nc(-c3ccccc3)cs2)nc1 | < 0.2 µg/mL
7 | CN(C(=O)CSc1nnc(C2CC2)n1C1CC1)C1(C#N)CCCCC1 | > 53.9 µg/mL
8 | O=C(Cc1ccc(Br)cc1)N1CCc2ccccc2C1 | 3.9 µg/mL (≈ 11.8 µM)
9 | c1ccc(CC(NCc2ccco2)c2ccccc2)cc1 (centres undefined) | 13.6 µg/mL (≈ 49 µM)
10 | O=C1OCC2=C1C(c1ccccc1)CC(=O)N2c1cccc(F)c1 (centres undefined) | 44.3 µg/mL (≈ 137 µM)
11 | COc1ccc(C2C(CN3CCOCC3)C(=O)N2c2ccccc2)cc1 (centres undefined) | > 52.9 µg/mL
12 | Nc1nc(Nc2ccccc2)nc(NCc2ccccc2)c1[N+](=O)[O-] | 0.2 µg/mL (≈ 0.595 µM)
13 | CCCCOC(=O)N1CCOCCOCCOCCOCC1 | > 47.9 µg/mL
14 | CCC(OC(=O)c1ccco1)C(=O)NC1CCCC1 (centres undefined) | > 39.8 µg/mL
15 | Cc1ccnc(NC(=O)C(C)N2C(=O)c3ccccc3C2=O)c1 (centres undefined) | 39.4 µg/mL (≈ 127 µM)
16 | CCN(CC)S(=O)(=O)c1ccc(N2CCc3ccccc3C2)nc1 | 25.8 µg/mL (≈ 74.7 µM)
17 | O=C(NC1CCCC1)C1CCN(c2cnccn2)CC1 | > 41.2 µg/mL
18 | Cc1nc(Cl)sc1C(=O)Nc1cc(F)cc(F)c1 | 20.7 µg/mL (≈ 71.7 µM)
19 | CC1(c2ccc(Cl)cc2)NC(=O)N(CN2CCOCC2)C1=O (centres undefined) | > 48.6 µg/mL
20 | CN(C)c1ccc(C=NCCc2ccc(S(N)(=O)=O)cc2)cc1 | 37.1 µg/mL (≈ 112 µM)
21 | CSc1ncccc1C(=O)OCCCC(=O)c1ccc(F)cc1 | 3.8 µg/mL (≈ 11.4 µM)
22 | Cc1nc2ncnn2c(C)c1Cc1cccc(C(F)(F)F)c1 | > 45.9 µg/mL
23 | COc1ccc(CC2SC(N)=NC2=O)cc1 (centres undefined) | > 35.4 µg/mL
24 | O=C(CS(=O)(=O)c1ccccc1)Nc1ncc([N+](=O)[O-])s1 | > 49.1 µg/mL

Row | SMILES | solubility kinetic
25 | O=C1/C(=C/c2ccco2)SC(=S)N1CC1CCCO1 (centres undefined) | 6.6 µg/mL (≈ 22.3 µM)
26 | CC(C)S(=O)(=O)C/C(N)=N/OC(=O)c1cc(Cl)cc(Cl)c1 | 34.5 µg/mL (≈ 97.7 µM)
27 | CC1CCCN(S(=O)(=O)c2cc(C(=O)NCc3ccco3)ccc2Cl)C1 (centres undefined) | 52.6 µg/mL (≈ 133 µM)
28 | CCN1CCC(N2CCN(c3ccc(Cl)cc3)CC2)CC1 | 15.7 µg/mL (≈ 51 µM)
29 | COc1ccc(OC)c(S(=O)(=O)NCCCn2ccnc2)c1 | 41.6 µg/mL (≈ 128 µM)
30 | COc1ccccc1-n1c(-c2ccc(F)cc2)coc1=O | 2.9 µg/mL (≈ 10.2 µM)
31 | COc1ccc(NC(=S)Nc2ccccc2Cl)cn1 | 38.8 µg/mL (≈ 132 µM)
32 | COc1ccc(S(=O)(=O)N2CCN(c3cnccn3)CC2)cc1OC | > 54.7 µg/mL
33 | O=C(NCC1CC1)Nc1cccc(Cl)c1 | > 33.7 µg/mL
34 | CC1=C/C(=C/N(C)C)C(=O)O1 | 15.7 µg/mL (≈ 102 µM)
35 | COC(=O)C1=C(C)NC(=O)NC1c1ccc(-c2ccc(Cl)cc2)o1 (centres undefined) | 4.8 µg/mL (≈ 13.8 µM)
36 | CCC(=O)c1ccc(OCC(=O)OCC(=O)NC2CCCCCCC2)cc1 | 48 µg/mL (≈ 128 µM)
37 | Cc1cc(-c2ccccc2)c2ccc(NC(=O)C(C)(C)C)nc2n1 | 0.6 µg/mL (≈ 1.88 µM)
38 | O=[N+]([O-])c1ccc(S(=O)(=O)c2ccccc2)nc1 | > 39.6 µg/mL
39 | CN(C)C(=O)C(OC(=O)c1ccc2ccccc2n1)c1ccccc1 (centres undefined) | > 50.2 µg/mL
40 | CC(C)(C)Nc1c(-c2cccs2)nc2ccccn12 | 33.4 µg/mL (≈ 123 µM)
41 | CCOC(=O)C1CCN(c2nc(C)cc(C)c2C#N)CC1 | 36.9 µg/mL (≈ 128 µM)
42 | COc1cccc(/C=C/C(=O)N2CC(C)OC(C)C2)c1OC (centres undefined) | > 45.8 µg/mL
43 | C=CCOn1c(=O)c(-c2ccc(Cl)cc2)[n+]([O-])c2ccccc21 | 0.8 µg/mL (≈ 2.43 µM)
44 | Cc1cccc(N2CCN(Cc3cnc(Cl)s3)CC2C)c1 (centres undefined) | 23.4 µg/mL (≈ 72.7 µM)
45 | Cc1onc(-c2ccccc2)c1C(=O)Nc1ccc(Cl)cn1 | 3.1 µg/mL (≈ 9.88 µM)
46 | NC(=O)COC(=O)CCCSc1nc2ccccc2s1 | > 46.6 µg/mL
47 | CC1CC(=O)Nc2ccccc2N1C(=O)CN1C(=O)C(=O)N(C)C1=O (centres undefined) | > 51.6 µg/mL
48 | N/C(=N\OC(=O)c1ccc(Cl)cc1[N+](=O)[O-])c1ccccn1 | 3 µg/mL (≈ 9.35 µM)

Row | SMILES | solubility kinetic
49 | Cc1nccc(-c2cc(-c3ccc(Cl)cc3Cl)no2)n1 | < 0.2 µg/mL
50 | Cn1c(=O)c(C(=O)NCCc2ccccc2)c(O)c2ccccc21 | 0.5 µg/mL (≈ 1.55 µM)
51 | COC(=O)c1cc(S(=O)(=O)N2CCCC2=O)c(Cl)cc1Cl | > 52.8 µg/mL
52 | COc1ccccc1NC(=O)/C(C#N)=C/c1cccnc1 | 41.3 µg/mL (≈ 148 µM)
53 | CCOC(=O)CNc1nc(Cl)nc(Nc2ccc(Cl)cc2)n1 | < 0.1 µg/mL
54 | Oc1ccc2ccccc2c1CNc1ccccn1 | 9.4 µg/mL (≈ 37.6 µM)
55 | CCC1CCC(N2CCN(c3ccc(F)cc3)CC2)CC1 (centres undefined) | 24.1 µg/mL (≈ 83 µM)
56 | O=S(=O)(Nc1ncccn1)c1ccccc1 | > 35.3 µg/mL
57 | CCCCc1nc(NCCO)c(C#N)c2c1CCCC2 | 3.6 µg/mL (≈ 13.2 µM)
58 | O=S(=O)(c1ccc(Cl)cc1)N1CCc2ccccc21 | 6.1 µg/mL (≈ 20.8 µM)
59 | CCc1cccc(CC)c1-n1c(SCC(=O)N2CCc3ccccc32)nc(O)cc1=O | 60 µg/mL (≈ 138 µM)
60 | O=C(O)c1cc(O)ccc1NC(=O)C1CCCO1 (centres undefined) | 30.1 µg/mL (≈ 120 µM)
61 | O=C(NCc1cccc(Cl)c1)NC(=O)c1csc([N+](=O)[O-])c1 | < 0.2 µg/mL
62 | O=S(=O)(Nc1ccccc1N1CCOCC1)c1c(F)cc(F)cc1Br | 2.3 µg/mL (≈ 5.31 µM)
63 | Cc1ccc(C(=O)C2=C(O)C(=O)N(c3ncccn3)C2c2ccc(F)cc2)o1 (centres undefined) | > 56.9 µg/mL
64 | C/C(=N\NC(N)=O)c1c(O)n(C)c(=O)n(C)c1=O | > 38.3 µg/mL
65 | Cc1nc([N+](=O)[O-])cn1CC(=O)c1ccc(F)cc1 | > 39.5 µg/mL
66 | Cc1cccc(COC(=O)C(Cc2ccccc2)NC(N)=O)c1 (centres undefined) | > 46.9 µg/mL
67 | CC(=O)N1CCN(C(=O)CCC(=O)O)CC1 | 30.9 µg/mL (≈ 135 µM)
68 | CCC(C(=O)O)n1cnc2scc(-c3ccc(C)c(C)c3)c2c1=O (centres undefined) | > 51.4 µg/mL
69 | CCOc1ccc(NC(=S)NC23CC4CC(CC(C4)C2)C3)cc1 | < 0.4 µg/mL
70 | CN(C)c1ccc(P(=O)(OC2CCCCC2)C(O)c2ccccn2)cc1 (centres undefined) | > 56.2 µg/mL
71 | O=C(NC1=NCCS1)c1ccc(Cl)c(Cl)c1 | 0.9 µg/mL (≈ 3.27 µM)
72 | CCc1nc(SCC(=O)OC)c2c3c(sc2n1)COC(C)(C)C3 | 7.4 µg/mL (≈ 21 µM)

Row | SMILES | solubility kinetic
73 | COc1cc(OC)cc(C(=O)N[C@H](C(=O)OCC(=O)c2ccc(C)c([N+](=O)[O-])c2)C(C)C)c1 | 28.8 µg/mL (≈ 62.8 µM)
74 | Cc1ccc(-n2c(=O)c3ccccc3n(CC(=O)C(C)(C)C)c2=O)cc1 | 7.7 µg/mL (≈ 22 µM)
75 | CCN(CC)C(=O)C1=C(C)NC(=S)NC1c1ccc(C)s1 (centres undefined) | 44.1 µg/mL (≈ 136 µM)
76 | COCc1cc(C)nc(SCc2ccc(F)cc2)c1C#N | 1.1 µg/mL (≈ 3.64 µM)
77 | COc1cccc(OC)c1OCCN1CCCC1 | 32.4 µg/mL (≈ 129 µM)
78 | N#CCNC1CC(=O)N(c2ccc(F)cc2)C1=O (centres undefined) | 29.9 µg/mL (≈ 121 µM)
79 | O=C(COC(=O)c1cc2ccccc2o1)NCc1ccco1 | 17 µg/mL (≈ 56.8 µM)
80 | Cc1c([N+](=O)[O-])cc(C(=O)Nc2ccc3ncccc3c2)cc1[N+](=O)[O-] | 0.5 µg/mL (≈ 1.42 µM)
81 | Cc1cc(O)c(CN2CC=C(c3ccccc3)CC2)cc1C(C)C | 1.2 µg/mL (≈ 3.73 µM)
82 | Cc1ccc(C)c(NC(=S)N(CCc2ccncc2)C(C)C)c1 | > 49.1 µg/mL
83 | O=C1C=C(NCc2ccccc2)c2ccccc2C1=O | 4.6 µg/mL (≈ 17.5 µM)
84 | O=C(/C=C/c1cccs1)c1ccc(N2CCOCC2)cc1 | 4.8 µg/mL (≈ 16 µM)
85 | Cc1cc(Br)ccc1NC(=S)NCCc1ccccc1 | 8.6 µg/mL (≈ 24.6 µM)
86 | O=C1CCN(C(=S)NCCc2ccccc2)CC1 | > 39.4 µg/mL
87 | COc1cccc(NC(=S)N(CCC(C)C)C(C)c2ccncc2)c1 (centres undefined) | 44.4 µg/mL (≈ 124 µM)
88 | O=C(CCNC(=O)c1ccco1)Nc1ccc(Cl)cc1F | > 46.6 µg/mL
89 | CCOc1ncccc1C(=O)NCCc1c[nH]c2ccccc12 | 8.7 µg/mL (≈ 28.1 µM)
90 | Cc1cc(C)cc(N2C(=O)C3CCCN3C2=S)c1 (centres undefined) | > 39.1 µg/mL
91 | CCc1ccc(Nc2ncc3c(n2)CC(C)(C)CC3=O)cc1 | 1.1 µg/mL (≈ 3.72 µM)
92 | Cc1ccc2nc(CCc3ccc(N)cc3)[nH]c2c1.Cl | > 48.6 µg/mL
93 | N=C1S/C(=C\c2ccco2)C(=O)N1c1nccs1 | 17.9 µg/mL (≈ 64.5 µM)
94 | O/N=C1\CCCc2ccc3ccccc3c21 | 4.5 µg/mL (≈ 21.3 µM)
95 | C=C(C)c1cccc(C(C)(C)NC(=O)N2CCN(c3ccccc3)CC2)c1 | 0.3 µg/mL (≈ 0.825 µM)
96 | CC(=O)NC(C(=O)c1ccccc1)N1CCCCC1 (centres undefined) | 29.1 µg/mL (≈ 112 µM)

Row | SMILES | solubility kinetic
97 | O=C(O)c1cccc(S(=O)(=O)Nc2ccc(Cc3ccncc3)cc2)c1 | > 55.3 µg/mL
98 | CNC(=O)NC(=O)COc1c(F)c(F)cc(F)c1F | 38.2 µg/mL (≈ 136 µM)
99 | Fc1ccc(-c2csc(-c3ccccn3)n2)cc1F | < 0.3 µg/mL
100 | COC(=O)c1ccsc1NC(=O)CS(=O)(=O)c1ccccc1 | > 50.9 µg/mL
101 | CC1CCCC(NC(=O)Cn2cc([N+](=O)[O-])ccc2=O)C1C (centres undefined) | 44 µg/mL (≈ 143 µM)
102 | COc1ccc([N+](=O)[O-])cc1N1C(=O)c2cccnc2C1=O | > 44.9 µg/mL
103 | O=S(=O)(Cc1cc(Cl)nc(-c2cccnc2)n1)c1ccccc1 | 40.7 µg/mL (≈ 118 µM)
104 | CC(=O)Oc1ccc2nc(-c3ccco3)oc(=O)c2c1 | 27.7 µg/mL (≈ 102 µM)
105 | O=C(NCCCN1CCOCC1)c1ccc(Cl)c([N+](=O)[O-])c1 | 45.2 µg/mL (≈ 138 µM)
106 | O=[N+]([O-])c1ccc(C(O)CN2CCN(c3ccccc3)CC2)cc1 (centres undefined) | 3 µg/mL (≈ 9.16 µM)
107 | O=C(COc1ccccc1Cl)NCc1ccccc1 | 20.6 µg/mL (≈ 74.7 µM)
108 | CC(C)[C@H](NC(=O)c1ccccc1F)C(=O)OCC(=O)NC(=O)NC1CCCCC1 | 51.3 µg/mL (≈ 122 µM)
109 | CC1=NOC(=O)/C1=C\c1ccc(-c2ccc(Cl)c(C(=O)O)c2)o1 | > 49.8 µg/mL
110 | Cc1ccc(C)c(N=Cc2c(O)c3ccccc3oc2=O)c1 | 1.6 µg/mL (≈ 5.45 µM)
111 | Nc1c(Br)c(=O)[nH]c(=O)n1-c1ccccc1 | > 42.3 µg/mL
112 | CN(C)CCCN=C(NO)c1ccc(Cl)cc1Cl | 40.5 µg/mL (≈ 140 µM)
113 | Cc1csc(=O)n1CC(=O)Nc1ccc(Cl)cc1F | 9 µg/mL (≈ 29.9 µM)
114 | CC(C1CCN(Cc2nc(C3CC3)no2)CC1)N1CCOCC1 (centres undefined) | 47.9 µg/mL (≈ 149 µM)
115 | O=S(=O)(NCCc1c[nH]c2ccccc12)c1ccccc1 | > 45.1 µg/mL
116 | O=C(NCCN1CCCCC1)Nc1ccc(F)cc1 | 37.4 µg/mL (≈ 141 µM)
117 | Cl.NCc1cc2c3c(c1)CCCN3CCC2 | > 41.3 µg/mL
118 | Cc1nc(N)sc1-c1csc(Nc2cccc(O)c2)n1 | 34.1 µg/mL (≈ 112 µM)
119 | COC(=O)c1ccc(NC(=O)C2C3C=CC(C3)C2C(=O)O)cc1 (centres undefined) | > 47.3 µg/mL
